Data on four compounds can be found in patent publication US9643950B2, “Solid forms of {s-3-(4-amino-1-oxo-isoindolin-2-yl)(piperidine-3,4,4,5,5-d5)-2,6-dione}” (Concert Pharmaceuticals, Inc., priority 2012, dated 2017).

Values after ≈ are worked out from the molar mass of the structure shown. “Also recorded” adds a separate entry of the source. Where two headings read alike, the source gives them in different places.

Holding throughout (type): physicochemical
A short description of series [1]: Visually estimated solubility of Form 1 in an array of solvents. As for the experimental part:
Solubility of Form 1 was visually estimated in an array of different solvents. […] Where applicable, the undissolved solids were analyzed by PXRD to verify crystal form. The data are shown in and indicate that the solubility of Form 1 to be relatively low in water and common organic solvents, (<6 mg/mL), very high in dimethylsulfoxide (DMSO; >400 mg/mL), and moderate in water- or DMSO-containing binary solvent systems.
Solubility of Form 1 was visually estimated in an array of diverse solvents. […] Where applicable, the undissolved solids were analyzed by PXRD to verify crystal form. The data are shown in Table 2 and indicate that the solubility of Form 1 is relatively low in water and common organic solvents, (<6 mg/mL), very high in dimethylsulfoxide (DMSO; >400 mg/mL), and moderate in water- or DMSO-containing binary solvent systems.

The nature of series [2]: Dynamic vapor sorption (DVS) hygroscopicity. As for the experimental part:
DVS experiments were conducted on a Surface Measurement Systems DVS-HT at 25° C. The instrument was operated in step mode and the relative humidity was increased in 10% RH increments from 40% RH to 90% RH, then decreased from 90% RH to 0% RH, then increased from 0% RH to 90% RH, then decreased from 90% RH to 0% RH. An extra step at 75% RH was included in each cycle. The mass equilibrium criterion was set at 0.005% change in mass over time (dm/dt) prior to each humidity level. A minimum step time of 10 minutes and a maximum step time of 240 minutes were specified.

Series [3] can be described thus: Relative stability of Forms 1 and 3 in water/organic mixtures (seeded suspensions). As to the method:
A series of experiments were conducted to assess the relative stability of Forms 1 and 3. […] The suspensions were each seeded with a small amount of Form 3 (˜1 mg) and stirred until a complete form conversion occurred.

Series [4] can be described thus: Physical (solid form) stability on storage or stirring, by PXRD. The conditions noted are these: for Physical stability by PXRD: 40° C./75% RH for 6 days. As to the method: PXRD diffractograms were acquired using PANalytical X'Pert Pro diffractometer on Si zero-background wafers. All diffractograms were collected using a monochromatic Cu Kα (45 kV/40 mA) radiation and a step size of 0.02° 2θ.
Form 1 is a crystalline powder with a PXRD pattern indicated at FIG. 1. FT-Raman (FIG. 2) and FT-IR Spectra (FIG. 3) were also collected. […] HPLC analysis indicated high purity of the material (>99.9% AUC). […] (FIG. 4). The PXRD diffractogram of the material heated past the exothermic event (heating to 261° C. followed by isothermal hold for 7 min) indicates a racemization of D-(S)-lenalidomide, as confirmed by chiral HPLC analyses of a reference material. […] This conclusion is based on two simultaneously run experiments. In one experiment, […] was exposed to 40° C./75% RH. […] Moreover, even this formation of Form 3 may have been at least in part the result of condensation inside of the RH chamber towards the end of the experiment, as a result of which Form 1 became slightly wet.
PXRD (FIG. 6) and PLM microscopy analyses indicate Form 2 to be partially crystalline and phase-impure with amorphous content. Thermal analyses confirmed that the material loses 4.3% wt. upon heating up to 160° C. (FIG. 8). IR analysis of the volatile component released upon heating confirmed water. The loss of water corresponds to broad endothermic (50-100° C.) and exothermic (120-160° C.) events on the DSC trace (FIG. 8), indicating potential dehydration and crystallization, respectively. An FT-Raman spectrum is provided at FIG. 7.

Series [5] in a line: HPLC analysis of degradation. The conditions noted are these: material from rapid evaporation of methanol solution (rotovapped at 65° C.). As to the method:
HPLC analyses were conducted with an HP1100 system equipped with a G1131 Quad pump, G1367A autosampler, and G1315B diode array detector. Column: Luna C18(2) (50×2.0 mm, 3 μm). Mobile phase: 100% vol. water (0.05% vol. TFA) to 95% acetonitrile (0.05% vol. TFA) over 8 min and 2 min re-equilibration. Flow rate: 1 mL/min. Detection: 254 nm.

Turning to `[2H]C1([2H])C(=O)NC(=O)[C@@]([2H])(N2Cc3c(N)cccc3C2=O)C1([2H])[2H]` (single isomer, unassigned) [Form 1, 3-(4-amino-1-oxoisoindolin-2-yl)(piperidine-3,4,4,5,5-d5)-2,6-dione], the “Residual Solid (crystal form of undissolved solids by PXRD)” value in series [1] (1,4-Dioxane), in series [1] (2-Propanol), in series [1] (Dichloromethane), in series [1] (Ethyl Acetate), in series [1] (Heptane) and in series [1] (Toluene) was “Form 1” in each case. Moreover, the solubility in series [1] (1,4-dioxane, 40 °C, organic solvent or mixture, thermodynamic from solid, read-out: Solubility at 40° C.) is over 6000 µg/mL; in series [1] (2-propanol, 40 °C, organic solvent or mixture, thermodynamic from solid, read-out: Solubility at 40° C.), under 1000 µg/mL; in series [1] (dichloromethane, 40 °C, organic solvent or mixture, thermodynamic from solid, read-out: Solubility at 40° C.), under 1000 µg/mL; in series [1] (ethyl acetate, 40 °C, organic solvent or mixture, thermodynamic from solid, read-out: Solubility at 40° C.), under 1000 µg/mL; in series [1] (heptane, 40 °C, organic solvent or mixture, thermodynamic from solid, read-out: Solubility at 40° C.), under 1000 µg/mL; in series [1] (organic solvent or mixture, thermodynamic from solid, 1,4-Dioxane, 20° C., read-out: Solubility at RT), under 1000 µg/mL. Further, the solubility was 1000 to 10000 µg/mL (≈ 3.78 to 37.8 mM) in series [1] (organic solvent or mixture, thermodynamic from solid, 2-Propanol: 10% vol. DMSO, 20° C., read-out: Solubility at RT); under 1000 µg/mL in series [1] (organic solvent or mixture, thermodynamic from solid, 2-Propanol, 20° C., read-out: Solubility at RT); 1000 to 6000 µg/mL (≈ 3.78 to 22.7 mM) in series [1] (organic solvent or mixture, thermodynamic from solid, Acetone, 20° C., read-out: Solubility at RT); 10000 to 30000 µg/mL (≈ 37.8 to 114 mM) in series [1] (organic solvent or mixture, thermodynamic from solid, Acetonitrile: 10% vol. DMSO, 20° C., read-out: Solubility at RT); 14000 to 17000 µg/mL (≈ 53 to 64.3 mM) in series [1] (organic solvent or mixture, thermodynamic from solid, Acetonitrile: 10% vol. Water, 20° C., read-out: Solubility at RT); 1000 to 6000 µg/mL (≈ 3.78 to 22.7 mM) in series [1] (organic solvent or mixture, thermodynamic from solid, Acetonitrile, 20° C., read-out: Solubility at RT). Moreover, the solubility in series [1] (organic solvent or mixture, thermodynamic from solid, DMSO, 20° C., read-out: Solubility at RT) is over 400000 µg/mL; in series [1] (organic solvent or mixture, thermodynamic from solid, Dichloromethane, 20° C., read-out: Solubility at RT) it was under 1000 µg/mL; in series [1] (organic solvent or mixture, thermodynamic from solid, Ethyl Acetate, 20° C., read-out: Solubility at RT), under 1000 µg/mL; in series [1] (organic solvent or mixture, thermodynamic from solid, Heptane, 20° C., read-out: Solubility at RT) it was under 1000 µg/mL; in series [1] (organic solvent or mixture, thermodynamic from solid, Methanol: 5% vol. Water, 20° C., read-out: Solubility at RT) it was 1000 to 10000 µg/mL (≈ 3.78 to 37.8 mM); in series [1] (organic solvent or mixture, thermodynamic from solid, Methanol: 10% vol. Water, 20° C., read-out: Solubility at RT) it was 1000 to 10000 µg/mL (≈ 3.78 to 37.8 mM). Moreover, the solubility in series [1] (organic solvent or mixture, thermodynamic from solid, Methanol, 20° C., read-out: Solubility at RT) was 1000 to 6000 µg/mL (≈ 3.78 to 22.7 mM); in series [1] (organic solvent or mixture, thermodynamic from solid, Tetrahydrofuran, 20° C., read-out: Solubility at RT), 1000 to 6000 µg/mL (≈ 3.78 to 22.7 mM); in series [1] (organic solvent or mixture, thermodynamic from solid, Toluene, 20° C., read-out: Solubility at RT) it was under 1000 µg/mL; in series [1] (thermodynamic from solid, Water, 20° C., read-out: Solubility at RT), 1000 to 6000 µg/mL (≈ 3.78 to 22.7 mM); in series [1] (thermodynamic from solid, water and common organic solvents, 20° C., read-out: Solubility) it was under 6000 µg/mL; in series [1] (toluene, 40 °C, organic solvent or mixture, thermodynamic from solid, read-out: Solubility at 40° C.) it was under 1000 µg/mL. Moreover, in series [1] (water- or DMSO-containing binary solvent systems, 20° C.), the solubility entry is listed as “moderate”. In addition, the “Solubility at RT” value in series [1] (DMSO, 20° C.) is over 400000 µg/mL. This compound also yielded a DVS weight gain in series [2] (between 0-90% RH, 25° C.) of under 0.65 wt. %. Besides, the “Produced Crystal Form” value is reported as “Form 3” in series [3] (1,4-Dioxane:Water 90:10% vol., water activity 0.7, 5 °C, seeded with Form 3); “Form 1” in series [3] (1,4-Dioxane:Water 90:10% vol., water activity 0.7, 20 °C, seeded with Form 3); “Form 1” in series [3] (1,4-Dioxane:Water 96.5:3.5% vol., water activity 0.5, 7 °C, seeded with Form 3); “Form 1” in series [3] (1,4-Dioxane:Water 96.5:3.5% vol., water activity 0.5, 20 °C, seeded with Form 3); “Form 1” in series [3] (1,4-Dioxane:Water 99:1% vol., water activity 0.2, 20 °C, seeded with Form 3); “Form 3” in series [3] (Water, water activity 1.0, 5 °C, Form 1 suspension seeded with Form 3). Further, in series [3] (Water, water activity 1.0, 20 °C, Form 1 suspension seeded with Form 3), the “Produced Crystal Form” value is reported as “Form 3”. Also, the “Water activity (αw) at which the form is the more stable” value in series [3] (20° C.) is reported as under 0.7; in series [3] (lower temperatures (5, and 7° C.)), under 0.5. For the same compound, the “Physical stability by PXRD” value in series [4] is recorded as “physically stable; also recorded: Form 1 as the major component, with only a trace of Form 3 being formed”.

As to `[2H]C1([2H])C(=O)NC(=O)[C@@]([2H])(N2Cc3c(N)cccc3C2=O)C1([2H])[2H]` [Amorphous D-(S)-lenalidomide], the “Degradation by HPLC” value in series [5] was found to be 2.5 % AUC.

For `[2H]C1([2H])C(=O)NC(=O)[C@@]([2H])(N2Cc3c(N)cccc3C2=O)C1([2H])[2H]` [Form 2], the Time physically stable in series [4] was “at least 24 hrs”. For the same compound, in series [4] (closed vial at room temperature, within 3 weeks), the “Form conversion on storage” value is “converts to a mixture of Forms 1 and 3; also recorded: converted to Forms 1 and 3”. Further, the “Form obtained upon stirring in water” value in series [4] (water, 12 hr at 5° C.) is on record as “Form 3 formed”.

As for `[2H]C1([2H])C(=O)NC(=O)[C@@]([2H])(N2Cc3c(N)cccc3C2=O)C1([2H])[2H]` [Form 3], the DVS behaviour entry in series [2] (below 20% relative humidity) is “dehydrate and re-hydrate with a relatively small hysteresis”. The DVS weight change result in series [2] (between 20-90% relative humidity, room temperature) is “no weight change”. Further, the “PXRD of residual solid after DVS” value in series [2] (equilibrated at 0% RH for four hours) was “no change in solid form”. Further, the “Water activity (αw) at which the form is the more stable” value in series [3] (20° C.) is on record as over 0.7. Moreover, the “Physical stability by PXRD” value in series [4] is “about half of the solid converted to Form 1; also recorded: partial conversion to Form 1”. The Time physically stable in series [4] (stored in a closed vial) was “at least 3 weeks”.

The term solubility denotes the dissolved amount per volume that the medium holds. By Solubility is commonly meant the concentration that dissolves in the medium under given conditions.
